Laboratory results published in ChEMBL document CHEMBL1201861, “Genomics of Drug Sensitity in Cancer screening data, Wellcome Trust Sanger Institute”.

How the values were obtained:
Assay in all cases: cells
Settings in all cases: Homo sapiens
U-118-MG = format: functional, cell-based
Description: SANGER: Inhibition of human U-118-MG cell growth in a cell viability assay.

CAL-27 = format: functional, cell-based
Description: SANGER: Inhibition of human CAL-27 cell growth in a cell viability assay.

HLE = format: functional, cell-based
Description: SANGER: Inhibition of human HLE cell growth in a cell viability assay.

HT-3 = format: functional, cell-based
Description: SANGER: Inhibition of human HT-3 cell growth in a cell viability assay.

KYSE-270 = format: functional, cell-based
Description: SANGER: Inhibition of human KYSE-270 cell growth in a cell viability assay.

SK-MES-1 = format: functional, cell-based
Description: SANGER: Inhibition of human SK-MES-1 cell growth in a cell viability assay.

KYSE-140 = format: functional, cell-based
Description: SANGER: Inhibition of human KYSE-140 cell growth in a cell viability assay.

KP-N-YN = format: functional, cell-based
Description: SANGER: Inhibition of human KP-N-YN cell growth in a cell viability assay.

MEL-JUSO = format: functional, cell-based
Description: SANGER: Inhibition of human MEL-JUSO cell growth in a cell viability assay.

C32 = format: functional, cell-based
Description: SANGER: Inhibition of human C32 cell growth in a cell viability assay.

MKN-7 = format: functional, cell-based
Description: SANGER: Inhibition of human MKN7 cell growth in a cell viability assay.

HCC1395 = format: functional, cell-based
Description: SANGER: Inhibition of human HCC1395 cell growth in a cell viability assay.

NY = format: functional, cell-based
Description: SANGER: Inhibition of human NY cell growth in a cell viability assay.

MDA-MB-361 = format: functional, cell-based
A-375 = format: functional, cell-based
Description: SANGER: Inhibition of human A375 cell growth in a cell viability assay.

NUGC-3 = format: functional, cell-based
Description: SANGER: Inhibition of human NUGC-3 cell growth in a cell viability assay.

NCI-H1793 = format: functional, cell-based
Description: SANGER: Inhibition of human NCI-H1793 cell growth in a cell viability assay.

SKG-IIIa = format: functional, cell-based
Description: SANGER: Inhibition of human SKG-IIIa cell growth in a cell viability assay.

U2OS = format: functional, cell-based, U-2-OS
Description: SANGER: Inhibition of human U-2-OS cell growth in a cell viability assay.

MEL-HO = format: functional, cell-based
Description: SANGER: Inhibition of human MEL-HO cell growth in a cell viability assay.

MFE-280 = format: functional, cell-based
Description: SANGER: Inhibition of human MFE-280 cell growth in a cell viability assay.

SK-MEL-28 = format: functional, cell-based
Description: SANGER: Inhibition of human SK-MEL-28 cell growth in a cell viability assay.

NCI-H2170 = format: functional, cell-based
Description: SANGER: Inhibition of human NCI-H2170 cell growth in a cell viability assay.

HSC-2 = format: functional, cell-based
Description: SANGER: Inhibition of human HSC-2 cell growth in a cell viability assay.

YKG-1 = format: functional, cell-based
Description: SANGER: Inhibition of human YKG-1 cell growth in a cell viability assay.

HuCCT-1 = format: functional, cell-based, HuCCT1
Description: SANGER: Inhibition of human HuCCT1 cell growth in a cell viability assay.

HOP-92 = format: functional, cell-based
Description: SANGER: Inhibition of human HOP-92 cell growth in a cell viability assay.

SK-MEL3 = format: functional, cell-based, SK-MEL-3
Description: SANGER: Inhibition of human SK-MEL-3 cell growth in a cell viability assay.

GMS-10 = format: functional, cell-based
Description: SANGER: Inhibition of human GMS-10 cell growth in a cell viability assay.

KOSC-2 = format: functional, cell-based
Description: SANGER: Inhibition of human KOSC-2 cell growth in a cell viability assay.

NCI-H2405 = format: functional, cell-based
Description: SANGER: Inhibition of human NCI-H2405 cell growth in a cell viability assay.

LoVo = format: functional, cell-based
Description: SANGER: Inhibition of human LoVo cell growth in a cell viability assay.

AN3-CA = format: functional, cell-based
Description: SANGER: Inhibition of human AN3-CA cell growth in a cell viability assay.

COR-L23 = format: functional, cell-based
Description: SANGER: Inhibition of human COR-L23 cell growth in a cell viability assay.

OVCAR-8 = format: functional, cell-based
Description: SANGER: Inhibition of human OVCAR-8 cell growth in a cell viability assay.

GCT = format: functional, cell-based
Description: SANGER: Inhibition of human GCT cell growth in a cell viability assay.

KYSE-180 = format: functional, cell-based
Description: SANGER: Inhibition of human KYSE-180 cell growth in a cell viability assay.

NCI-H358 = format: functional, cell-based
Description: SANGER: Inhibition of human NCI-H358 cell growth in a cell viability assay.

SNU-387 = format: functional, cell-based
Description: SANGER: Inhibition of human SNU-387 cell growth in a cell viability assay.

HEC-1 = format: functional, cell-based
Description: SANGER: Inhibition of human HEC-1 cell growth in a cell viability assay.

CAKI-1 = format: functional, cell-based
Description: SANGER: Inhibition of human CAKI-1 cell growth in a cell viability assay.

HCC1954 = format: functional, cell-based
Description: SANGER: Inhibition of human HCC1954 cell growth in a cell viability assay.

D-392MG = format: functional, cell-based
BHY = format: functional, cell-based
Description: SANGER: Inhibition of human BHY cell growth in a cell viability assay.

T84 = format: functional, cell-based
Description: SANGER: Inhibition of human T84 cell growth in a cell viability assay.

NCI-N87 = format: functional, cell-based
Description: SANGER: Inhibition of human NCI-N87 cell growth in a cell viability assay.

AU565 = format: functional, cell-based
Description: SANGER: Inhibition of human AU565 cell growth in a cell viability assay.

HSC-4 = format: functional, cell-based
Description: SANGER: Inhibition of human HSC-4 cell growth in a cell viability assay.

## Cn1cc(/C=C2\C(=O)Nc3cccnc32)c2ccccc21
U-118-MG
  IC50: > 2000 nM
CAL-27
  IC50: > 2000 nM
HLE
  IC50: > 2000 nM
HT-3
  IC50: > 2000 nM
KYSE-270
  IC50: > 2000 nM
SK-MES-1
  IC50: > 2000 nM
KYSE-140
  IC50: > 2000 nM
KP-N-YN
  IC50: > 2000 nM
MEL-JUSO
  IC50: > 2000 nM
C32
  IC50: > 2000 nM
MKN-7
  IC50: > 2000 nM
HCC1395
  IC50: > 2000 nM
NY
  IC50: > 2000 nM
MDA-MB-361
  IC50: > 2000 nM
A-375
  IC50: > 2000 nM
NUGC-3
  IC50: > 2000 nM
NCI-H1793
  IC50: > 2000 nM
SKG-IIIa
  IC50: > 2000 nM
U2OS
  IC50: > 2000 nM
MEL-HO
  IC50: > 2000 nM
MFE-280
  IC50: > 2000 nM
SK-MEL-28
  IC50: > 2000 nM
NCI-H2170
  IC50: > 2000 nM
HSC-2
  IC50: > 2000 nM
YKG-1
  IC50: > 2000 nM
HuCCT-1
  IC50: > 2000 nM
HOP-92
  IC50: > 2000 nM
SK-MEL3
  IC50: > 2000 nM
GMS-10
  IC50: > 2000 nM
KOSC-2
  IC50: > 2000 nM
NCI-H2405
  IC50: > 2000 nM
LoVo
  IC50: > 2000 nM
AN3-CA
  IC50: > 2000 nM
COR-L23
  IC50: > 2000 nM
OVCAR-8
  IC50: > 2000 nM
GCT
  IC50: > 2000 nM
KYSE-180
  IC50: > 2000 nM
NCI-H358
  IC50: > 2000 nM
SNU-387
  IC50: > 2000 nM
HEC-1
  IC50: > 2000 nM
CAKI-1
  IC50: > 2000 nM
HCC1954
  IC50: > 2000 nM
D-392MG
  IC50: > 2000 nM
BHY
  IC50: > 2000 nM
T84
  IC50: > 2000 nM
NCI-N87
  IC50: > 2000 nM
AU565
  IC50: > 2000 nM
HSC-4
  IC50: 1950 nM

## COc1cc(Nc2c(C#N)cnc3cc(OCCCN4CCN(C)CC4)c(OC)cc23)c(Cl)cc1Cl [BOSUTINIB]
U-118-MG
  IC50: > 2000 nM
CAL-27
  IC50: 929 nM
HLE
  IC50: > 2000 nM
HT-3
  IC50: > 2000 nM
KYSE-270
  IC50: > 2000 nM
SK-MES-1
  IC50: > 2000 nM
KYSE-140
  IC50: 1760 nM
KP-N-YN
  IC50: > 2000 nM
MEL-JUSO
  IC50: > 2000 nM
C32
  IC50: > 2000 nM
MKN-7
  IC50: > 2000 nM
HCC1395
  IC50: > 2000 nM
NY
  IC50: > 2000 nM
MDA-MB-361
  IC50: > 2000 nM
A-375
  IC50: 1520 nM
NUGC-3
  IC50: 1290 nM
NCI-H1793
  IC50: > 2000 nM
SKG-IIIa
  IC50: > 2000 nM
U2OS
  IC50: > 2000 nM
MEL-HO
  IC50: > 2000 nM
MFE-280
  IC50: > 2000 nM
SK-MEL-28
  IC50: > 2000 nM
NCI-H2170
  IC50: > 2000 nM
HSC-2
  IC50: > 2000 nM
YKG-1
  IC50: > 2000 nM
HuCCT-1
  IC50: > 2000 nM
HOP-92
  IC50: > 2000 nM
SK-MEL3
  IC50: > 2000 nM
GMS-10
  IC50: > 2000 nM
KOSC-2
  IC50: 1320 nM
NCI-H2405
  IC50: > 2000 nM
LoVo
  IC50: 1980 nM
AN3-CA
  IC50: > 2000 nM
COR-L23
  IC50: > 2000 nM
OVCAR-8
  IC50: > 2000 nM
GCT
  IC50: > 2000 nM
KYSE-180
  IC50: > 2000 nM
NCI-H358
  IC50: > 2000 nM
SNU-387
  IC50: > 2000 nM
HEC-1
  IC50: > 2000 nM
CAKI-1
  IC50: > 2000 nM
HCC1954
  IC50: > 2000 nM
D-392MG
  IC50: > 2000 nM
BHY
  IC50: 1230 nM
T84
  IC50: > 2000 nM
NCI-N87
  IC50: > 2000 nM
AU565
  IC50: > 2000 nM
HSC-4
  IC50: 172 nM

## C[C@]12O[C@H](C[C@]1(O)CO)n1c3ccccc3c3c4c(c5c6ccccc6n2c5c31)CNC4=O [LESTAURTINIB]
U-118-MG
  IC50: > 2000 nM
CAL-27
  IC50: 437 nM
HLE
  IC50: 1390 nM
HT-3
  IC50: 449 nM
KYSE-270
  IC50: 392 nM
SK-MES-1
  IC50: 46.5 nM
KYSE-140
  IC50: 449 nM
KP-N-YN
  IC50: 1960 nM
MEL-JUSO
  IC50: 503 nM
C32
  IC50: 182 nM
MKN-7
  IC50: 1810 nM
HCC1395
  IC50: > 2000 nM
NY
  IC50: > 2000 nM
MDA-MB-361
  IC50: 1250 nM
A-375
  IC50: 332 nM
NUGC-3
  IC50: > 2000 nM
NCI-H1793
  IC50: > 2000 nM
SKG-IIIa
  IC50: 255 nM
U2OS
  IC50: 82.9 nM
MEL-HO
  IC50: 120 nM
MFE-280
  IC50: > 2000 nM
SK-MEL-28
  IC50: 327 nM
NCI-H2170
  IC50: > 2000 nM
HSC-2
  IC50: 1500 nM
YKG-1
  IC50: 325 nM
HuCCT-1
  IC50: 862 nM
HOP-92
  IC50: 909 nM
SK-MEL3
  IC50: 160 nM
GMS-10
  IC50: 463 nM
KOSC-2
  IC50: 327 nM
NCI-H2405
  IC50: 1820 nM
LoVo
  IC50: 31.9 nM
AN3-CA
  IC50: 1250 nM
COR-L23
  IC50: 665 nM
OVCAR-8
  IC50: 753 nM
GCT
  IC50: 327 nM
KYSE-180
  IC50: > 2000 nM
NCI-H358
  IC50: > 2000 nM
SNU-387
  IC50: 601 nM
HEC-1
  IC50: 374 nM
CAKI-1
  IC50: 334 nM
HCC1954
  IC50: > 2000 nM
D-392MG
  IC50: 593 nM
BHY
  IC50: 872 nM
T84
  IC50: > 2000 nM
NCI-N87
  IC50: > 2000 nM
AU565
  IC50: 1650 nM
HSC-4
  IC50: 203 nM
